Test results reported in patent US5032595A, “Method of stimulating steroidogenesis with alpidem” (FIDIA-Georgetown Institute for the Neurosciences, priority 1989, dated 1991).

Columns and labels:
[1] = molecular target: T1, peripheral-type benzodiazepine receptor (PBR) in Y-1 cells (Mus musculus, UniProt P50637); experiment: [3H]PK 11195 binding in Y-1 adrenocortical cells; conditions: 37° C.; for rank order of compound displacement potency against [3H]PK 11195 binding: FIG. 2a
T1 construct: Y-1 cell cultures were scraped from the flasks; host or cells: Y-1 mouse adrenal tumor cells
T1 sequence (P50637 whole entry): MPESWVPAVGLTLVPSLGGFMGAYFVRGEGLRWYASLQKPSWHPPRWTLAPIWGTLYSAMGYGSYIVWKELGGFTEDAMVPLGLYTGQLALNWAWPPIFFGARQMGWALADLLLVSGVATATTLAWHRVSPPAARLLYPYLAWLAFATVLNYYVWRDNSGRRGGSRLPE
Procedure: (§1) Cells--The Y-1 adrenal mouse tumor cell line used in these studies was obtained from the American Type Culture Collection (ATCC #CCL 79). Stock cultures were grown in modified Waymouth's MB752/l medium containing 20 mM HEPES, 1.2 g/l NaHCO3, 15% horse serum and 2.5% fetal calf serum, pH 7.4. Before use the cells were washed three times at 30 min intervals, with serum-free media in order to eliminate serum components that may interfere with the assays and were incubated for the indicated time periods in the presence of the drugs under investigation. Bovine fasciculata-reticularis and adrenocortical cells from adult (300 g) Sprague-Dawley rats were prepared as previously described by Yanagibashi et al, (1989) Endocrinology 124; 2838-2391.
Radioligand binding assays--Y-1 cell cultures were scraped from the flasks ([…]) in 5 ml of Kreb's buffer, dispersed by repetitive pipetting, and centrifuged at 1,200 × g for 5 min. The cell pellets were resuspended in Kreb's buffer and larger cellular aggregates were allowed to settle for 5 min. The finely dispersed cell suspensions were taken for further experimentation.
Binding assays were performed in a total volume of 250-400 ul of Kreb's buffer containing [^3 H]PK 11195 (0.07-20 nM) with 5 ug of cellular protein. Incubations were conducted at 37° C. for 30 min and bound radioligand was measured by filtration through Whatman GF/C filters followed by four rapid 5 ml washes with 25 mM Tris-HCl (pH 7.4) containing 1 uM PK 11195. Filters were subjected to liquid scintillation counting. Nonspecific binding was measured in the presence (of 10 uM nonradioactive PK 11195.

PBR in MA-10 cells = molecular target: T2, PBR in MA-10 cells (Mus musculus, UniProt P50637); experiment: [3H]PK 11195 binding in MA-10 Leydig cells; conditions: 37° C.
T2 construct: endogenous in cells; host or cells: MA-10 mouse Leydig tumor cells (from Dr. Mario Ascoli)
T2 sequence (P50637 whole entry): as above
Procedure: (§2) Cells--The MA-10 cell line originally cloned from the solid M5480P mouse Leydig cell tumor used in these experiments was obtained from Dr. Mario Ascoli (The Population Council, Rockefeller University, N.Y.). Stock cultures were grown in modified Waymouth's MB752/1 medium containing 20 mM HEPES, 1.2 g/l NaHCO3 and 15% horse serum, pH 7.4 as described by Ascoli (1981) Endocrinology 108, 88-95. Before use, the MA-10 Leydig cells were washed three times, in 30 min intervals, with serum-free media in order to eliminate serum components that may interfere with the assays and incubated for the indicated periods of time in the presence of the indicated substances. Testicular interstitial cells were prepared by enzymatic dissociation of testes obtained from adult Sprague-Dawley (300 g) rats. This preparation contained 20-30% 3β-hydroxysteroid dehydrogenase positive cells (Leydig cells). Leydig cells were further purified using discontinuous Percoll gradient centrifugation as described by Papadopoulos et al., 1985 FEBS Letters 188, 312-316. The preparations obtained contained 75-85% Leydig cells as shown by the histochemical staining for 3β-hydroxysteroid dehydrogenase by the procedure of Papadopoulos et al., FEBS Letters 188, supra. [^3 H]PK 11195 binding assays--Cells were scraped from 75 cm^2 culture flasks into 5 ml of Kreb's buffer, dispersed by trituration, and centrifuged at 1,200 × g for 5 min. The cell pellets were resuspended in buffer and larger cell aggregates were allowed to settle to the bottom of the tube before the cell suspension was retrieved for experimentation.
[^3 H]PK 11195 binding studies on 5 ug of protein from the cell suspensions were performed in 250-400μl of Kreb's buffer at 37° C., essentially the same conditions under which the
effects of the compounds on steroidogenesis were studied. Nonspecific binding was determined in the presence of 10 μM PK 11195. […] Radioactivity trapped on the filters was determined by liquid scintillation counting. […]

MA-10 Leydig cells = experiment: Progesterone production in MA-10 Leydig cells; format: cell-based, mouse; conditions: MA-10 cells, 4 hours incubation
Procedure: as §2
Steroid Biosynthesis--These experiments were performed with the MA-10 Leydig cells plated in 12×22 mm wells and incubated for the times shown and in the presence of the indicated substances at a final volume of 1 ml of serum-free media at 37° C. […]
Progesterone and 20-γ-hydroxyprogesterone production for the MA-10 cells, and testosterone accumulation for the rat Leydig cells were measured by means of radioimmunoassay. […]

[2] = tested on: purified rat Leydig cells; experiment: Testosterone production by purified rat Leydig cells, basal and hCG stimulated; conditions: for Testosterone, No Additions / stimulation of testosterone production / effect on testosterone production (in words): basal; for Testosterone, No Additions / Testosterone, hCG (50 ng/ml): 4 hours at 32° C., mean ± S.D. n = 3; for Testosterone, No Additions: control 1.30 ± 0.20; for Testosterone, hCG (50 ng/ml): control 15.13 ± 2.05; for stimulation of testosterone production / effect on testosterone production (in words): purified rat Leydig cells; for stimulation of testosterone production: 240 min
Y-1 adrenocortical cells = experiment: Steroid (20-hydroxyprogesterone) secretion in Y-1 cells; format: cell-based, mouse
Procedure: as §1
Measurement of steroid production--These experiments were performed with the Y-1 cells plated in 12--22 mm wells and incubated for the times shown at a final volume of 1 ml of serum-free media at 37° C. […] Steroid production was determined by measuring 20-γ-hydroxyprogesterone, the main steroid product of these cells, using a radioimmunoassay with an antibody donated by Dr. G. Nieswender (Univ. of Colorado, Fort Collins), under the process described in Kowal J. (1970), Recent Progress in Hormone Research 26, 623-687 and Schimmer B.P. (1981) in Functionally Differentiated Cell Lines, ed. […]

[3] = Serum testosterone after intravenous alpidem in rats (dosing studies); format: in vivo; conditions: adult Sprague-Dawley rats
Procedure: Alpidem was suspended in isotonic saline by sonication and administered intravenously to adult Sprague-Dawley rats (200-300 g). The doses used ranged from 0.01-1.5 mg/kg, the highest concentration being just below the level needed for behavioral effects to be observed. Control rats were injected with saline alone to serve as control for measurement of basal serum levels of testosterone. After specific times the rats were killed by decapitation and blood was collected. Serum was prepared and testosterone was measured by radioimmunoassay. Each point included three rats for all permutations of each time point and concentration of alpidem used.

[4] = read-out: dissociation constant (Scatchard analysis)

**Q.** With `Cc1ccc(-c2nc3ccc(C)cn3c2CC(=O)N(C)C)cc1` [zolpidem] as the molecule, how does the “rank order of compound displacement potency against [3H]PK 11195 binding” value (from here on “rank order”) [1] read?
**A.** The value was “alpidem>PK 11195>PK 14067>4'-chlorodiazepam>zolpidem>PK 14608, diazepam>flunitrazepam>clonazepam>flumazenil”.

**Q.** Which Bmax [1] does the source give for `CCC(C)N(C)C(=O)c1cc2ccccc2c(-c2ccccc2Cl)n1` (stereo not drawn) [PK 11195, 1-(2-chlorophenyl)-N-methyl-N-(l-methylpropyl)-3-isoquinoline carboxamide] here?
**A.** The Bmax was 54 pmol/mg of protein.

**Q.** What about the “time to reach binding equilibrium” value [1] of the same molecule?
**A.** Its value is at most 15 min.

**Q.** What about the “rank order” value [1] of the same molecule?
**A.** The value was “alpidem>PK 11195>PK 14067>4'-chlorodiazepam>zolpidem>PK 14608, diazepam>flunitrazepam>clonazepam>flumazenil”.

**Q.** And the Kd [1, 4]?
**A.** Its Kd is 1.8 nM.

**Q.** What about the “density of binding sites” value (PBR in MA-10 cells) of the same molecule?
**A.** The value was 56 pmol/mg of protein.

**Q.** What about the “time to reach steady-state specific binding” value (PBR in MA-10 cells) of the same molecule?
**A.** Its value is 10 min.

**Q.** What about the Kd (PBR in MA-10 cells; [4]) of the same molecule?
**A.** The Kd was 1.8 nM.

**Q.** What about the “stimulation of progesterone production” value (MA-10 Leydig cells) of the same molecule?
**A.** Its value is 3 to 4 fold.

**Q.** What about the “Testosterone, No Additions” value ([2]; compound 10^-6 M) of the same molecule?
**A.** The value was 2.33 ± 0.21 ng/10^5 cel s/4 hours.

**Q.** What about the “Testosterone, hCG (50 ng/ml)” value ([2]; compound 10^-6 M) of the same molecule?
**A.** The value was 14.86 ± 1.51 ng/10^5 cel s/4 hours.

**Q.** And the “stimulation of testosterone production” value [2]?
**A.** The value was “about 2 fold”.

**Q.** For `O=C1CN=C(c2ccccc2Cl)c2cc([N+](=O)[O-])ccc2N1` [clonazepam], which “rank order” value [1] is on record?
**A.** Its value is “alpidem>PK 11195>PK 14067>4'-chlorodiazepam>zolpidem>PK 14608, diazepam>flunitrazepam>clonazepam>flumazenil”.

**Q.** What about the “effect on steroid production (in words)” value (Y-1 adrenocortical cells) of the same molecule?
**A.** Its value is “failed to stimulate steroid production”.

**Q.** What about the “Testosterone, No Additions” value ([2]; compound 10^-5 M) of the same molecule?
**A.** The value was 1.16 ± 0.11 ng/10^5 cel s/4 hours.

**Q.** And the “Testosterone, hCG (50 ng/ml)” value ([2]; compound 10^-5 M)?
**A.** The value was 14.90 ± 2.22 ng/10^5 cel s/4 hours.

**Q.** What about the “effect on testosterone production (in words)” value [2] of the same molecule?
**A.** The value was “no effect”.

**Q.** What does the source list for `CN1C(=O)CN=C(c2ccccc2)c2cc(Cl)ccc21` [diazepam]?
**A.** rank order of compound displacement potency against [3H]PK 11195 binding [1]: alpidem>PK 11195>PK 14067>4'-chlorodiazepam>zolpidem>PK 14608, diazepam>flunitrazepam>clonazepam>flumazenil; Testosterone, No Additions ([2]; compound 10^-5 M): 1.90 ± 0.10 ng/10^5 cel s/4 hours; Testosterone, hCG (50 ng/ml) ([2]; compound 10^-5 M): 14.96 ± 3.09 ng/10^5 cel s/4 hours; effect on testosterone production (in words) [2]: less potent

**Q.** What does the source list for `CCOC(=O)c1ncn2c1CN(C)C(=O)c1cc(F)ccc1-2` [flumazenil]?
**A.** rank order of compound displacement potency against [3H]PK 11195 binding [1]: alpidem>PK 11195>PK 14067>4'-chlorodiazepam>zolpidem>PK 14608, diazepam>flunitrazepam>clonazepam>flumazenil; effect on steroid production (in words) (Y-1 adrenocortical cells): failed to stimulate steroid production

**Q.** With `CCCN(CCC)C(=O)Cc1c(-c2ccc(Cl)cc2)nc2ccc(Cl)cn12` [alpidem] as the molecule, how does the “time for which elevated testosterone levels were maintained” value [3] read?
**A.** Its value is “at least 4 hours”.

**Q.** And the “increase in serum testosterone levels” value ([3]; doses greater than or equal to 0.01 mg/kg)?
**A.** Its value is 2-4 times above control levels.

**Q.** And the “rank order” value [1]?
**A.** The value was “alpidem>PK 11195>PK 14067>4'-chlorodiazepam>zolpidem>PK 14608, diazepam>flunitrazepam>clonazepam>flumazenil”.

**Q.** And the “stimulation of progesterone production” value (MA-10 Leydig cells)?
**A.** The value was 3 to 4 fold.

**Q.** What about the “Testosterone, No Additions” value ([2]; compound 10^-7 M) of the same molecule?
**A.** Its value is 2.35 ± 0.27 ng/10^5 cel s/4 hours.

**Q.** And the “Testosterone, hCG (50 ng/ml)” value ([2]; compound 10^-7 M)?
**A.** The value was 15.02 ± 2.31 ng/10^5 cel s/4 hours.

**Q.** What about the “stimulation of testosterone production” value [2] of the same molecule?
**A.** Its value is “about 2 fold”.

**Q.** What does the source list for `CC(Cc1cc(-c2ccccc2)nc2ccccc12)C(=O)N(C)C` (single isomer, unassigned; (+)) [PK 14068, (+) N,N-dimethyl-x-methyl-2-phenyl-4-quinoline propanamide]?
**A.** rank order of compound displacement potency against [3H]PK 11195 binding [1]: alpidem>PK 11195>PK 14067>4'-chlorodiazepam>zolpidem>PK 14608, diazepam>flunitrazepam>clonazepam>flumazenil; Testosterone, No Additions ([2]; compound 10^-5 M): 1.16 ± 0.15 ng/10^5 cel s/4 hours; Testosterone, hCG (50 ng/ml) ([2]; compound 10^-5 M): 13.50 ± 1.51 ng/10^5 cel s/4 hours

**Q.** Which “rank order” value [1] does the source give for `CC(Cc1cc(-c2ccccc2)nc2ccccc12)C(=O)N(C)C` (single isomer, unassigned; (-)) [PK 14067, (-) N,N-dimethyl-x-methyl-2-phenyl-4-quinoline propanamide] here?
**A.** The value was “alpidem>PK 11195>PK 14067>4'-chlorodiazepam>zolpidem>PK 14608, diazepam>flunitrazepam>clonazepam>flumazenil”.

**Q.** What about the “stimulation of progesterone production” value (MA-10 Leydig cells) of the same molecule?
**A.** The value was 3 to 4 fold.

**Q.** What about the “Testosterone, No Additions” value ([2]; compound 10^-6 M) of the same molecule?
**A.** Its value is 2.20 ± 0.30 ng/10^5 cel s/4 hours.

**Q.** And the “Testosterone, hCG (50 ng/ml)” value ([2]; compound 10^-6 M)?
**A.** The value was 14.13 ± 1.49 ng/10^5 cel s/4 hours.

**Q.** Which “rank order” value [1] does the source give for `CN1C(=O)CN=C(c2ccccc2F)c2cc([N+](=O)[O-])ccc21` [flunitrazepam] here?
**A.** The value was “alpidem>PK 11195>PK 14067>4'-chlorodiazepam>zolpidem>PK 14608, diazepam>flunitrazepam>clonazepam>flumazenil”.
